From patent US9586951B2 (FUJIFILM Corporation, priority 2013, dated 2017)

How the values were obtained:
ATM = target: T1, ATM (Homo sapiens, UniProt Q13315); experiment: ATM inhibition test (phosphorylation of Chk2 generated by ionizing radiation, AlphaScreen SureFire); format: cell-based; settings: phosphorylated Chk2 in NCI-H460 cells, ionizing radiation 8Gy, 1 hour after test compound treatment; read-out: ATM inhibitory activity
T1 construct: detecting phosphorylation of Chk2 in a human non-small cell lung cancer cell line NCI-H460 (ATCC company); host or cells: NCI-H460 human non-small cell lung cancer cells
How it was run: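 Phosphorylated Chk2 read by AlphaScreen SureFire in human non-small cell lung cancer NCI-H460 cells, 1 hour after 8Gy ionizing radiation at 37° C. Compound added 1 hour before irradiation. Percent inhibition normalised between irradiated and non-irradiated drug-untreated signals.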

[1] = system: human non-small cell lung cancer cell line NCI-H460; experiment: Cell proliferation inhibition test by sensitivity-enhancing to ionizing radiation (Cell Titer Glo); format: cell-based; settings: concentration in which SER became 2, NCI-H460 cells, ionizing radiation 2 Gy, cultured 120 hour
How it was run: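 Radiosensitisation measured as SER, a ratio of Cell Titer Glo luminescence in irradiated vs unirradiated plates relative to DMSO; SER2, the concentration yielding SER 2, came from sigmoidal regression. Compound (0.1% DMSO) was given 24 h post-seeding, 2 Gy applied 30 min later, then 120 hour culture at 37° C.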

T1 sequence (Q13315 whole entry): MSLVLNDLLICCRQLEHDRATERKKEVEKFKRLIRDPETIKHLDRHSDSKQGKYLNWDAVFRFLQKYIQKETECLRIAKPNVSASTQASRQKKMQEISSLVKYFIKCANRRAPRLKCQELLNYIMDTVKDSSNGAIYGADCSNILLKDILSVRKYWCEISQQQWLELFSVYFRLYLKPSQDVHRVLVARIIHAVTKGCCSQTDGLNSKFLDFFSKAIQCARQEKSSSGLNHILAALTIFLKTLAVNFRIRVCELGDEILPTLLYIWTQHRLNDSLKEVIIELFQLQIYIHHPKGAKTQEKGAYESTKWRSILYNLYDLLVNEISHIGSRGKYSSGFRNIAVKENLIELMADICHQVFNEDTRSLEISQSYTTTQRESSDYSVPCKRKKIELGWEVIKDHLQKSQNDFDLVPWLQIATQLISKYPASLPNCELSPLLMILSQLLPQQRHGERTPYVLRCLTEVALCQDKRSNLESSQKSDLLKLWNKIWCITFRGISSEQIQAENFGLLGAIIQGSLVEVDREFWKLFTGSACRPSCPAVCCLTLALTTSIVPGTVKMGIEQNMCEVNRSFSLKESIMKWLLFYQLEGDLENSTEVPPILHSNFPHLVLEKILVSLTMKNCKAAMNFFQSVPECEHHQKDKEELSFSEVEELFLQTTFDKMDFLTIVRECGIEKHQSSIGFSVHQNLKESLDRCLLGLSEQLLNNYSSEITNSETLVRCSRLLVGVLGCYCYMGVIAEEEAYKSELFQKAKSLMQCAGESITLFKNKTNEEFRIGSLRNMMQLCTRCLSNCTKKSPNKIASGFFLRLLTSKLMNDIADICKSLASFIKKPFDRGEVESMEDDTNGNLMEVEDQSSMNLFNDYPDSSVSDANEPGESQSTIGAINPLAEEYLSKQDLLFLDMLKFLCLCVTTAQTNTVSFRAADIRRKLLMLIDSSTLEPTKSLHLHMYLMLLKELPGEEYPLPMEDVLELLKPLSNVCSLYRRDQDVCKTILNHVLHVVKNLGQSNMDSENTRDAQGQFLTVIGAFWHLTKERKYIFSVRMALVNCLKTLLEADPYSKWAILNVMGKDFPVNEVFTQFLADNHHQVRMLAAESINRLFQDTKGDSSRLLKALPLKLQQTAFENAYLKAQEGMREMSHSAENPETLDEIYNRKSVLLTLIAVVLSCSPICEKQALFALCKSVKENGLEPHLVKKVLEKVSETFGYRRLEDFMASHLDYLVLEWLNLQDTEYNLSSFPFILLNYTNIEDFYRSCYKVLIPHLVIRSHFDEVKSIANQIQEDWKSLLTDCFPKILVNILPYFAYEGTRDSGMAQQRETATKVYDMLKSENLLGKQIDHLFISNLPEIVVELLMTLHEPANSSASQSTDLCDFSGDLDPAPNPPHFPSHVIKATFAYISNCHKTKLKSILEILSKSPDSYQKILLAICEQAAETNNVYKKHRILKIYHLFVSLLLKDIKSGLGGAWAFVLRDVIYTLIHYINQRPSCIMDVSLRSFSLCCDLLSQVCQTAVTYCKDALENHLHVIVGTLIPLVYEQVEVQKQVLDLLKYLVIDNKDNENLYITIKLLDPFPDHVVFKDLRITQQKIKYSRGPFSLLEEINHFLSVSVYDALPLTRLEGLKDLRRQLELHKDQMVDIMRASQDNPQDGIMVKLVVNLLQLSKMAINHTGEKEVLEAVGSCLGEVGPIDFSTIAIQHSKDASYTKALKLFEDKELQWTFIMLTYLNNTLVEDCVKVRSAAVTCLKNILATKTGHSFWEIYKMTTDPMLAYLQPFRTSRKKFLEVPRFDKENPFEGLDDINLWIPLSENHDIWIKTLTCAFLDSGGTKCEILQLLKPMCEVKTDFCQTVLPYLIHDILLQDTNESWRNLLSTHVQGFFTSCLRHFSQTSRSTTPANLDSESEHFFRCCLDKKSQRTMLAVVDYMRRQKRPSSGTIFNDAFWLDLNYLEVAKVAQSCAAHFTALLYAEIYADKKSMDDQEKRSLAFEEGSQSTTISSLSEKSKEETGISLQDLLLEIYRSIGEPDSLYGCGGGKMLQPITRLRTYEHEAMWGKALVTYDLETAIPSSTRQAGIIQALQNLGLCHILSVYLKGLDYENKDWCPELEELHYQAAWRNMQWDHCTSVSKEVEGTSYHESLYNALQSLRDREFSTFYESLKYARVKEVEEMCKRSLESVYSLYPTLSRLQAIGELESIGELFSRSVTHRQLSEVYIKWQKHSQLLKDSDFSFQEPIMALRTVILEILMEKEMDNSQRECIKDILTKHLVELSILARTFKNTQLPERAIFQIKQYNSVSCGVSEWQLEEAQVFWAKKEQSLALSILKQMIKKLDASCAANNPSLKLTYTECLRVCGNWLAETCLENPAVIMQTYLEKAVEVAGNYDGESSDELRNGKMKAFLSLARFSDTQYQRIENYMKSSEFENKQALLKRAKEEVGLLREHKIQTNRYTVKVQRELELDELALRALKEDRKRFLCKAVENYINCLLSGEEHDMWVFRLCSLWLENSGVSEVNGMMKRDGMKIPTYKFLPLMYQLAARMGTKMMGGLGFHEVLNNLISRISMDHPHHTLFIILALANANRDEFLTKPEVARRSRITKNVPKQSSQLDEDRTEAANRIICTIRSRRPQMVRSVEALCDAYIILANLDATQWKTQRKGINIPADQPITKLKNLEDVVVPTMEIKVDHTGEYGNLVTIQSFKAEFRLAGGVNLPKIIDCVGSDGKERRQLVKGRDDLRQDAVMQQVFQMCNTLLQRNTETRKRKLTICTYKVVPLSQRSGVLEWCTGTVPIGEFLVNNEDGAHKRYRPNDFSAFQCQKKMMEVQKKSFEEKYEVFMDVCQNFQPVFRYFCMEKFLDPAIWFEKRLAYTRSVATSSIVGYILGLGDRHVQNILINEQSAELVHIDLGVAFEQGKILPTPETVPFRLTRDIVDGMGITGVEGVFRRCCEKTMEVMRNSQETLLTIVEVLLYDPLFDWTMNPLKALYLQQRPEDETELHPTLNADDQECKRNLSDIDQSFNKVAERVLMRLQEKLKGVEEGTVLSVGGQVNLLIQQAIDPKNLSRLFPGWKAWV

Compound	IC50 (ATM)	SER2 (concentration at which the radiation sensitivity-enhancement ratio reaches 2) ([1]; Homo sapiens, NCI-H460, 120 h)	IC50 ([1]; Homo sapiens, NCI-H460, 120 h, read-out: SER2)	SER2 (concentration at which the radiation sensitivity-enhancement ratio reaches 2) [1]
O=c1cc(N2CCOCC2)cc(-c2cccc3c2Oc2ccc(NCc4ccnc(Br)c4)cc2S3)[nH]1 [Example 4-4-16, 6-(8-(((2-Bromopyridin-4-yl)methyl)amino)phenoxathiin-4-yl)-4-morpholino pyridin-2(1H)-one]	< 100 nM	100 to 500 nM	–	–
Cc1cccc(C(C)Nc2ccc3c(c2)Cc2cccc(-c4cc(N5CCOCC5)cc(=O)[nH]4)c2O3)n1 (single isomer, unassigned) [Example 2-14-85-2, 6-(7-((1-(6-methylpyridin-2-yl)ethyl)amino)-9H-xanthen-4-yl)-4-morpholinopyridin-2(1H)-one]	< 100 nM	< 100 nM	–	–
COc1ccnc(CNc2ccc3c(c2)Cc2cccc(-c4cc(N5CCOCC5)cc(=O)[nH]4)c2O3)n1 [Example 2-13-8, 6-(7-(((4-Methoxypyrimidin-2-yl)methyl)amino)-9H-xanthen-4-yl)-4-morpholino pyridin-2(1H)-one]	< 100 nM	500 to 2000 nM	–	–
COC[C@H](CN1CCO[C@H](C)C1)Nc1ccc2c(c1)Sc1cccc(-c3cc(N4CCOCC4)cc(=O)[nH]3)c1S2 [Example 1-46-7, 6-(7-(((S)-1-Methoxy-3-((R)-2-methylmorpholino)propan-2-yl)amino)thianthren-1-yl)-4-morpholino pyridin-2(1H)-one]	< 100 nM	100 to 500 nM	–	–
Cn1cc(-c2ccnc(CNc3ccc4c(c3)Cc3cccc(-c5cc(N6CCOCC6)cc(=O)[nH]5)c3O4)c2)cn1 [Example 2-2-74, 6-(7-(((4-(1-Methyl-1H-pyrazol-4-yl)pyridin-2-yl)methyl)amino)-9H-xanthen-4-yl)-4-morpholino pyridin-2(1H)-one]	< 100 nM	100 to 500 nM	–	–
O=c1cc(N2CCOCC2)cc(-c2c(F)ccc3c2Oc2ccc(NCc4cc(C5CC5)ccn4)cc2C3)[nH]1 [Example 2-46-3, 6-(7-(((4-Cyclopropylpyridin-2-yl)methyl)amino)-3-fluoro-9H-xanthen-4-yl)-4-morpholinopyridin-2(1H)-one]	< 100 nM	< 100 nM	–	–
N#Cc1ccnc(CNc2ccc3c(c2)Sc2cccc(-c4cc(N5CCOCC5)cc(=O)[nH]4)c2O3)c1 [Example 4-4-28, 2-(((6-(4-Morpholino-6-oxo-1,6-dihydropyridin-2-yl)phenoxathiin-2-yl)amino)methyl) isonicotinonitrile]	< 100 nM	100 to 500 nM	–	–
CN1CCCC(Nc2ccc3c(c2)Sc2cccc(-c4cc(N5CCOCC5)cc(=O)[nH]4)c2S3)C1 (stereo not shown) [Example 1-31-2, 6-(7-((1-Methylpiperidin-3-yl)amino)thianthren-1-yl)-4-morpholinopyridin-2(1H)-one]	< 100 nM	100 to 500 nM	–	–
Cc1ccnc(C(C)Nc2ccc3c(c2)Sc2cccc(-c4cc(N5CCOCC5)cc(=O)[nH]4)c2S3)c1 (stereo not shown) [Example 1-12-29]	< 100 nM	< 100 nM	–	–
O=c1cc(N2CCOCC2)cc(-c2cccc3c2Oc2ccc(NCc4cc(-c5cccnc5)ccn4)cc2C3)[nH]1 [Example 2-2-72]	< 100 nM	–	100 to 500 nM	–
CN(C)c1cnc(CNc2ccc3c(c2)Sc2cccc(-c4cc(N5CCOCC5)cc(=O)[nH]4)c2O3)cn1 [Example 4-4-17, 6-(8-(((5-(Dimethylamino)pyrazin-2-yl)methyl)amino)phenoxathiin-4-yl)-4-morpholino pyridin-2(1H)-one]	< 100 nM	100 to 500 nM	–	–
N#Cc1cccc(CNc2ccc3c(c2)Cc2cccc(-c4cc(N5CCOCC5)cc(=O)[nH]4)c2O3)n1 [Example 2-14-13, 6-(((5-(4-Morpholino-6-oxo-1,6-dihydropyridin-2-yl)-9H-xanthen-2-yl)amino)methyl) picolinonitrile]	< 100 nM	100 to 500 nM	–	–
Cc1ccc(CNc2ccc3c(c2)Cc2cccc(-c4cc(N5CCOCC5)cc(=O)[nH]4)c2O3)nc1 [Example 2-2-41, 6-(7-(((5-Methylpyridin-2-yl)methyl)amino)-9H-xanthen-4-yl)-4-morpholino pyridin-2(1H)-one]	100 to 500 nM	100 to 500 nM	–	–
Cc1cncc(C(C)Nc2ccc3c(c2)Sc2cccc(-c4cc(N5CCOCC5)cc(=O)[nH]4)c2S3)c1 (stereo not shown) [Example 1-12-50, 6-(7-((1-(5-Methylpyridin-3-yl)ethyl)amino)thianthren-1-yl)-4-morpholino pyridin-2 (1H)-one]	< 100 nM	100 to 500 nM	–	–
O=c1cc(N2CCOCC2)cc(-c2cccc3c2Oc2ccc(NCc4cncc(-n5cccc5)c4)cc2S3)[nH]1 [Example 4-4-8, 6-(8-(((5-(1H-Pyrrol-1-yl)pyridin-3-yl)methyl)amino)phenoxathiin-4-yl)-4-morpholino pyridin-2(1H)-one]	< 100 nM	100 to 500 nM	–	–
Cc1cccc(C(CCN(C)C)Nc2ccc3c(c2)Sc2cccc(-c4cc(N5CCOCC5)cc(=O)[nH]4)c2S3)n1 (single isomer, unassigned) [Example 1-22-11-2, 6-(7-((3-(dimethylamino)-1-(6-methylpyridin-2-yl)propyl)amino)thianthren-1-yl)-4-morpholinopyridin-2(1H)-one]	< 100 nM	–	–	< 100 nM
COc1ccnc(CNc2ccc3c(c2)Cc2cccc(-c4cc(N5CCOCC5)cc(=O)[nH]4)c2O3)c1 [Example 2-2-38, 6-(7-(((4-Methoxypyridin-2-yl)methyl)amino)-9H-xanthen-4-yl)-4-morpholino pyridin-2(1H)-one]	< 100 nM	100 to 500 nM	–	–
O=c1cc(N2CCOCC2)cc(-c2cccc3c2Oc2ccc(NCc4ccc(F)nc4)cc2S3)[nH]1 [Example 4-8-24, 6-(8-(((6-Fluoropyridin-3-yl)methyl)amino)phenoxathiin-4-yl)-4-morpholino pyridin-2(1H)-one]	< 100 nM	100 to 500 nM	–	–
Cc1cnc(CNc2ccc3c(c2)Sc2cccc(-c4cc(N5CCOCC5)cc(=O)[nH]4)c2S3)cn1 [Example 1-12-62, 6-(7-(((5-Methylpyrazin-2-yl)methyl)amino)thianthren-1-yl)-4-morpholino pyridin-2 (1H)-one]	< 100 nM	100 to 500 nM	–	–
Cc1cncc(C(C)Nc2ccc3c(c2)Sc2cccc(-c4cc(N5CCOCC5)cc(=O)[nH]4)c2S3)n1 (stereo not shown) [Example 1-12-73, 6-(7-((1-(6-Methylpyrazin-2-yl)ethyl)amino)thianthren-1-yl)-4-morpholino pyridin-2 (1H)-one]	< 100 nM	< 100 nM	–	–
Cc1ccc(C(Nc2ccc3c(c2)Sc2cccc(-c4cc(N5CCOCC5)cc(=O)[nH]4)c2S3)C2CC(N(C)C)C2)nc1 (single isomer, unassigned) [Example 1-50-9, 6-(7-(((3-(Dimethylamino)cyclobutyl)(5-methylpyridin-2-yl)methyl)amino)thianthren-1-yl)-4-morpholino pyridin-2 (1H)-one]	< 100 nM	–	–	< 100 nM
Cc1cccc(C(CCN2CCOCC2)Nc2ccc3c(c2)Sc2cccc(-c4cc(N5CCOCC5)cc(=O)[nH]4)c2S3)n1 (stereo not shown) [Example 1-34-4]	< 100 nM	< 100 nM	–	–
CCN(C)CCC(Nc1ccc2c(c1)Sc1cccc(-c3cc(N4CCOCC4)cc(=O)[nH]3)c1S2)c1cnc(C)cn1 (stereo not shown) [Example 1-23-2, 6-(7-((3-(Ethyl(methyl)amino)-1-(5-methylpyrazin-2-yl)propyl)amino)thianthren-1-yl)-4-morpholinopyridin-2(1H)-one]	< 100 nM	100 to 500 nM	–	–
Cc1ccc(C(CCCN(C)C)Nc2ccc3c(c2)Sc2cccc(-c4cc(N5CCOCC5)cc(=O)[nH]4)c2S3)nc1 (single isomer, unassigned) [Example 1-51-3, 6-(7-((4-(Dimethylamino)-1-(5-methylpyridin-2-yl)butyl)amino)thianthren-1-yl)-4-morpholino pyridin-2(1H)-one]	< 100 nM	100 to 500 nM	–	–
COc1cccc(C(CO)Nc2ccc3c(c2)Sc2cccc(-c4cc(N5CCOCC5)cc(=O)[nH]4)c2S3)n1 (stereo not shown) [Example 1-12-132, 6-(7-((2-Hydroxy-1-(6-methoxypyridin-2-yl)ethyl)amino)thianthren-1-yl)-4-morpholino pyridin-2(1H)-one]	< 100 nM	100 to 500 nM	–	–
CC(CN1CCN(C)CC1)Nc1ccc2c(c1)Sc1cccc(-c3cc(N4CCOCC4)cc(=O)[nH]3)c1S2 (racemic) [Example 1-13-3-1, 6-(7-((1-(4-Methylpiperazin-1-yl)propan-2-yl)amino)thianthren-1-yl)-4-morpholinopyridin-2(1H)-one]	< 100 nM	100 to 500 nM	–	–
